Assay results as given in EP1690531A2, “Dosage form and method for administering drug” (ALZA CORPORATION, priority 1996, dated 1998).

Tests used:
[1] = Clinical study of methylphenidate delivery profiles in school children (SKAMP, CLAM, mathematics test, activity monitor); assay type: in vivo, human; details: 36 school children
Procedure: (§1) The CLAM Test is a behavior rating that indicates social conformity or rebellion as developed by Conners, Lonez, and Milch and SKAMP is a rating that also measures behavior as developed by Swanson and reported in Psychopharmacological Bulletin, Vol. 21, pp. 887-890 (1985).
(§2) The effect measurements in this study were: (1) observer ratings on SKAMP scale (during classroom time) and (2) performance on the computerized mathematics test. Each child was tested on the mathematics test before the study began, and based on this pre-test during the study, a mathematics test appropriate for each child's ability was given. The morning and evening parent CLAM assessments were used to identify unusual behaviors. The evening parent CLAM was used to determine the presence of treatment effects in the evening hours, particularly treatment effects on the time the child fell asleep, and whether the child's sleep was interrupted. All of the children also wore an activity monitor (Actigraph) which records the movements of the child throughout the day. The activity (number of movements per minute) is recorded electronically and modeled as a function of the drug effect.
The immediate release tablet and the sustained-release dosage form were compared to a sustained-release dosage form that administered methylphenidate in an ascending profile. The sustained-release ascending profile corresponds to administering 4.2 mg at zero hour, 1.1 mg at 1.5 hours, 1.1 mg at 2 hours, 1.2 mg at 2.5 hours, 1.2 mg at 3.0 hours, 1.3 mg at 3.5 hours, 1.3 mg at 4 hours, 1.5 mg at 4.5 hours, 1.5 mg at 5 hours, 1.8 mg at 5.5 hours, 1.8 mg at 6 hours, and 2.0 mg at 6.5 hours, to produce the sustained-ascending release dotted line profile seen in Figure 2.
The accompanying figures present the results of the above-described study. […]

[2] = Clinical study of sustained-ascending versus three-times-a-day immediate release methylphenidate (behavior, combined attention); assay type: in vivo, human
Procedure: as §1, §2
The results of a clinical study that comprises administering methylphenidate according to two distinct delivery programs are reported in this example. In the study, a sustained-ascending profile corresponds to administering methylphenidate as follows: 8 mg at zero hours, 1.4 mg at 1.5 hours, 1.4 mg at 2.0 hours, 1.7 mg at 2.5 hours, 1.7 mg at 3.0 hours, 2.0 mg at 3.5 hours, 2.0 mg at 4.0 hours, 2.2 mg at 4.5 hours, 2.2 mg at 5.0 hours, 2.2 mg at 5.5 hours, 2.2 mg at 6.0 hours, 2.4 mg at 6.5 hours, 2.4 mg at 7.0 hours, 2.6 mg at 7.5 hours, and 1.9 mg at 8.0 hours. The methylphenidate was administered in overcoated capsules comprising a total of 36 mg of methylphenidate with 22% in the exterior overcoat. The ascending dose was administered with the first dose at 0730 followed by ascending doses every 30 minutes until 1530 to produce the intended ascending plasma concentration. […]

Compound: COC(=O)C(c1ccccc1)C1CCCCN1 (stereo not drawn) [methylphenidate]
- therapeutic effect and tolerance ([1]; controlled-sustained ascending profile (4.2 mg at zero hour rising to 2.0 mg at 6.5 hours)): the desired therapeutic effect without tolerance
- clinical effect (activity, mathematical scores, inappropriate behavior) ([1]; sustained-nonascending dose, 20 mg methylphenidate (8.3 mg at zero hour then 0.9 mg every 0.5 h to 7.5 hours)): a decrease in activity, higher mathematical scores and a lessening of inappropriate behavior
- acute tolerance ([1]; sustained-nonascending dose, 20 mg methylphenidate): development of acute tolerance
- behavior, acquired tolerance ([2]; sustained ascending program, 36 mg total, 0730 to 1530, 32 children with attention deficient hyperactivity disorder, Figure 7): absence of acquired tolerance
- combined attention parameter, developed tolerance ([2]; sustained-ascending release, 36 mg total, 32 children, Figure 8): essentially free of developed tolerance
- combined attention parameter, acquired tolerance ([2]; three daily immediate release, 10 mg at 0730, 1130 and 1530, 32 children, Figure 8): with acquired tolerance
